Experimental data as given in patent publication US20100204131A1, “USE OF A PEPTIDE AS A THERAPEUTIC AGENT” (priority 2007, published 2010).
No end group written: not given here.

Key:
[1] = tested on: IL-4 spleen cells; assay: Th1/Th2 cytokine profiling assay: IL-4; conditions: 10 micrograms per ml; spleen cells of Ovalbumin-immunized Balb/c mice restimulated with Ovalbumin 10 micrograms/ml; 72 hours; supernatant
Description: (§1) The Balb/c mice (originated in 1923, it is a popular strain and is used in many different research disciplines. Also classified as an inbred from the production of 20 or more successive brother-sister matings, the Balb/c mouse is albino and small in size) were immunized on Days 1, 15, and 29 with Ovalbumin (Ovalbumin is the main protein found in egg white, commonly used to stimulate an immunological reaction in test animals) in PBS (5 micrograms/injection). On day 50, spleens of the mice were harvested (3 weeks after last boost with Ovalbumin). […] Thereafter, additional Ovalbumin was added to the cells at 10 micrograms/ml for in vitro restimulation of the cells. 72 hours later, cell supernatants were harvested and assayed using the Becton Dickinson Mouse Th1/Th2 Cytokine CBA Kit.

[2] = tested on: Primary Human endothelial cells (HUVEC); assay: Endothelial cell migration assay; conditions: 10 micrograms per ml, 22 hours, transwell
Description: Primary Human endothelial cells (HUVEC) were seeded in insert chambers with 3 micrometer pore size of multi-transwell plate for 6 hours at 37° C. in Endothelial Cell Basal Medium (EBM) supplemented with 0.1% bovine serum albumin. Thereafter, designated concentration of testing peptides -10 micrograms per ml—was added in duplicate wells. The endothelia were allowed to migrate for 22 hours at 37° C., then, migrated cells were fixed and stained with Hoechst 33342 dye. Images of 3 fields per insert were taken and the number of migrated cells per field were quantified using the ImageProPlus software. Data were analyzed for the average number of the migrated cells and standard deviation of six data points for each treatment condition. […] Statistic p values were computed using the Student's t-test.

[3] = tested on: IFNγ spleen cells; assay: Th1/Th2 cytokine profiling assay: IFNγ; conditions: 10 micrograms per ml; spleen cells of Ovalbumin-immunized Balb/c mice restimulated with Ovalbumin 10 micrograms/ml; 72 hours; supernatant
Description: (§2) The Balb/c mice (originated in 1923, it is a popular strain and is used in many different research disciplines. Also classified as an inbred from the production of 20 or more successive brother-sister matings, the Balb/c mouse is albino and small in size) were immunized on Days 1, 15, and 29 with Ovalbumin (Ovalbumin is the main protein found in egg white, commonly used to stimulate an immunological reaction in test animals) in PBS (5 micrograms/injection). On day 50, spleens of the mice were harvested (3 weeks after last boost with Ovalbumin). […] Thereafter, additional Ovalbumin was added to the cells at 10 micrograms/ml for in vitro restimulation of the cells. 72 hours later, cell supernatants were harvested and assayed using the Becton Dickinson Mouse Th1/Th2 Cytokine CBA Kit. This kit can be used to measure Interleukin-2 (IL-2), Interleukin-4 (IL-4), Interleukin-5 (IL-5), Interferon-γ (IFN-γ), and Tumor Necrosis Factor-α (TNF-α) protein levels in a single sample.

[4] = tested on: IL-2 spleen cells; assay: Th1/Th2 cytokine profiling assay: IL-2; conditions: 10 micrograms per ml; spleen cells of Ovalbumin-immunized Balb/c mice restimulated with Ovalbumin 10 micrograms/ml; 72 hours; supernatant
Description: as §1

[5] = tested on: IL-5 spleen cells; assay: Th1/Th2 cytokine profiling assay: IL-5; conditions: 10 micrograms per ml; spleen cells of Ovalbumin-immunized Balb/c mice restimulated with Ovalbumin 10 micrograms/ml; 72 hours; supernatant
Description: as §1

[6] = tested on: HUVEC; assay: Endothelial tube formation assay; conditions: 10 micrograms per ml, 20 hours, average tubule length
Description: The endothelial tube formation assay is based on the ability of endothelial cells to form three-dimensional capillary-like tubular structures when cultured on a gel of basement membrane extract. […] Pre-labeled HUVEC with Calcein AM were seeded in a 96-well culture plate coated with extracellular metrix (Chemicon international Cat. ECM625) and treated with test peptides—10 micrograms per ml—in full growth medium. Positive control was vehicle only. The endothelial cells were allowed to form tubes foe 20 hours and were then examined under an inverted fluorescent microscope. Duplicate wells for each treatment were photographed and quantitatevily analyzed for an average tubule length using image analysis software ImageProPlus. Raw data were expressed as average tubule lengths in pixels ±standard deviation. Statistic p values were computed using the Student's t-test.

[7] = tested on: HCMV strain AD169; assay: HCMV plaque formation assay in MRC-5 cells; conditions: for inhibition of HCMV plaque formation as compared to the virus control: 10 micrograms per ml, MRC-5 cells, 7-10 days
[8] = tested on: TNF-a spleen cells; assay: Th1/Th2 cytokine profiling assay: TNF-a; conditions: 10 micrograms per ml; spleen cells of Ovalbumin-immunized Balb/c mice restimulated with Ovalbumin 10 micrograms/ml; 72 hours; supernatant
Description: as §2

[9] = tested on: hepatitis B virus (HBV) ayw strain; assay: HBV experimental assay system (HepG2-2.2.15, TaqMan PCR); type: cell-based; conditions: 10 micrograms per ml; HepG2-2.2.15 cells; six days; HBV DNA by TaqMan PCR
Description: HepG2-2.2.15 is a stable cell line containing the hepatitis B virus (HBV) ayw strain genome (ATCC Cat. No. CRL-11997). Antiviral compounds blocking any late step of viral replication such as transcription, translation, pregenome encapsidation, reverse transcription, particle assembly and release can be identified and characterized using this cell line. In this assay, an active compound will reduce the production of secreted HBV from cells, measured by utilizing real time quantitative PCR (TaqMan) assay to directly and accurately measure HBV DNA copies.
HepG2-2.2.15 cells were plated in 96-well microtiter plates. After 16-24 hours the confluent monolayer of HepG2-2.2.15 cells was washed and the medium was replaced with complete medium containing test peptides—10 micrograms per ml—in duplicate. […] Six days following the initial administration of the peptides, the cell culture supernatants was collected, treated with pronase and DNAse and then used in a real-time quantitative TaqMan PCR assay. The PCR-amplified HBV DNA was detected in real-time by monitoring increases in fluorescence signals that result from the exonucleolytic degradation of a quenched fluorescence probe molecule that hybridizes to the amplified HBV DNA. […] Antiviral activity was calculated from the reduction in HBV DNA levels (% virus control). […]

[10] = tested on: HIV-1IIIB; assay: HIV-1 antiviral assay in CEM-SS cells; conditions: CEM-SS cells infected with HIV-1IIIB

Molecule | IL-4 spleen cells; TH2 response (% of control) [1] | inhibition of the migration of human endothelial cells [2] | IFNγ spleen cells; TH1 response (% of control) [3] | IL-2 spleen cells (% of control) [4] | IL-5 spleen cells; TH2 response (% of control) [5] | inhibition of the tube formation of endothelial cells [6] [%] | inhibition of HCMV plaque formation as compared to the virus control [7] | TNF-a spleen cells; TH1 response (% of control) [8] | inhibition of HBV replication on tested liver cells [9] | antiviral activity of positive control compound ([7]; positive control, HCMV in MRC-5 cells) | antiviral activity of positive control compounds [10]
Ser-Tyr-Ser-Met-Glu-His-Phe-Arg-Trp-Gly-Lys-Pro-Val-Gly-Lys-Lys-Arg-Arg-Pro-Val-Lys-Val-Tyr-Pro-OH (SYSMEHFRWGKPVGKKRRPVKVYP-OH) [peptide 1] | 132.1 % of control | did not inhibit | 103.7 % of control | 149.2 % of control | 82.6 % of control | 25 | did not inhibit | 97.0 % of control | no effect |  | 
Ala-Ser-Gln-Phe-Glu-Thr-Ser-OH (ASQFETS-OH) [peptide 2] | 0.0 % of control | 28% | 94.7 % of control | 72.5 % of control | 57.6 % of control | 27 | did not inhibit | 110.7 % of control | no effect |  | 
Nc1nc(O)c2ncn(COC(CO)CO)c2n1 [Ganciclovir, reference compound] |  |  |  |  |  |  |  |  |  | expected levels of antiviral activity | 
CC(C)(C)NC(=O)[C@@H]1CN(Cc2cccnc2)CCN1C[C@@H](O)C[C@@H](Cc1ccccc1)C(=O)N[C@H]1c2ccccc2C[C@H]1O [indinavir] |  |  |  |  |  |  |  |  |  |  | expected levels of antiviral activity
Cc1cn([C@H]2C[C@H](N=[N+]=[N-])[C@@H](CO)O2)c(=O)[nH]c1=O [AZT] |  |  |  |  |  |  |  |  |  |  | expected levels of antiviral activity
